Results taken from patent publication US20230263822A1, “MODULATION OF FACTOR 11 EXPRESSION” (Ionis Pharmaceuticals, Inc., priority 2008, published 2023).

Assays:
[1] = Body and organ weights of cynomolgus monkeys (Example 45); type: in vivo;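 for Organ weights, Kidney: absolute organ weight in grams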;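 for Organ weights, Liver: absolute organ weight in grams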;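 for Organ weights, Spleen: absolute organ weight in grams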
Method: (§1) Groups, each consisting of two male and three female monkeys, were injected subcutaneously with ISIS 416838, ISIS 416850, ISIS 416858, ISIS 416864, or ISIS 417002 in escalating doses. Antisense oligonucleotide was administered to the monkeys at 5 mg/kg three times per a week for week 1; 5 mg/kg twice per week for weeks 2 and 3; 10 mg/kg three times per week for week 4; 10 mg/kg twice per week for weeks 5 and 6; 25 mg/kg three times per week for week 7; and 25 mg/kg twice per week for weeks 8, 9, 10, 11, and 12. One control group, consisting of two male and three female monkeys, was injected subcutaneously with PBS according to the same dosing regimen. An additional experimental group, consisting of two male and three female monkeys, was injected subcutaneously with ISIS 416850 in a chronic, lower dose regimen. Antisense oligonucleotide was administered to the monkeys at 5 mg/kg three times per week for week 1; 5 mg/kg twice per week for week 2 and 3; 10 mg/kg three times per week for week 4; and 10 mg/kg twice per week for weeks 5 to 12. Body weights were measured weekly. Blood samples were collected 14 days and 5 days before the start of treatment and subsequently once per week for Factor 11 protein activity analysis in plasma, fibrinogen measurement, PT and aPTT measurements, bleeding times, and measurement of various hematologic factors. On day 85, the monkeys were euthanized by exsanguination while under deep anesthesia, and organs harvested for further analysis.
Body weights were taken once weekly throughout the dosing regimen. […] Organ weights were taken after the animals were euthanized and livers, kidneys and spleens were harvested and weighed. […] The ISIS oligonucleotide, ISIS 416850, given with the chronic dose regimen is distinguished from the other oligonucleotides with an asterisk (*).

[2] = Tolerability in CD1 mice: liver function, ALT, AST, bilirubin, albumin (Example 33); details: plasma, 50 mg/kg s.c. twice a week
Method: A control group of five mice was injected subcutaneously with PBS for 2 weeks. All experimental groups (i.e. ASO treated mice at 2, 4, 6 weeks) were compared to the control group (i.e. PBS, 2 weeks).
To evaluate the effect of ISIS oligonucleotides on hepatic function, plasma concentrations of transaminases were measured using an automated clinical chemistry analyzer (Hitachi Olympus AU400e, Melville, N.Y.). […] Plasma levels of bilirubin and albumin were also measured using the same clinical chemistry analyzer and expressed in mg/dL.

[3] = system: Factor 11 activity; assay: Factor 11 protein activity, F11 assay based on clotting time (Example 45); type: in vivo, cynomolgus monkeys
Method: as §1
Blood samples were collected at various time points and Factor 11 proenzyme was measured using a F11 assay based on clotting time. Clotting times were determined in duplicate with a ST4 semi-automated coagulation instrument (Diagnostica Stago, NJ). Thirty μl of citrated sample plasma diluted 1/20 in HEPES-NaCl buffer with BSA was incubated with 30 μl aPTT reagent (Automated aPTT, Organon Technika, NC) and 30 μl of citrated plasma deficient of Factor 11 (George King Bio-Medical Inc.) at 37° C. for 5 min, followed by the addition of 30 μl of 25 mM CaCl2) to initiate clotting. Results were interpolated on a standard curve of serially diluted citrated control plasma.
Results are presented in Table 118 as percent inhibition of Factor 11 activity, relative to PBS control. The ISIS oligonucleotide, ISIS 416850, given with the chronic dose regimen is distinguished from the other oligonucleotides with an asterisk (*).

[4] = day 8, chronic dose regimen (*)
[5] = day 15, chronic dose regimen (*)
[6] = day 15, escalating dose regimen
[7] = day 22, chronic dose regimen (*)
[8] = day 22, escalating dose regimen
[9] = day 29, chronic dose regimen (*)
[10] = day 29, escalating dose regimen
[11] = day 36, chronic dose regimen (*)
[12] = day 36, escalating dose regimen
[13] = day 43, chronic dose regimen (*)
[14] = day 43, escalating dose regimen
[15] = day 50, chronic dose regimen (*)
[16] = day 50, escalating dose regimen
[17] = day 57, escalating dose regimen
[18] = day 64, escalating dose regimen
[19] = day 71, escalating dose regimen
[20] = day 78, escalating dose regimen
[21] = day 85, escalating dose regimen
[22] = day −5, escalating dose regimen
[23] = day −14, escalating dose regimen
[24] = after the animals were euthanized

ISIS 416850: MOE gapmer, nucleobases 1275 to 1318 of SEQ ID NO: 1 (Table 8) (antisense TGCACAGTTTCTGGCAGGCC; MOE gapmer, wing and gap sizes not given here)
body weights ([1]; day 1, chronic dose regimen (*)): 2665 g | body weights ([1]; day 1, escalating dose regimen): 2572 g | body weights [1, 4]: 2579 g | body weights ([1]; day 8, escalating dose regimen): 2430 g | body weights [1, 5]: 2607 g | body weights [1, 6]: 2474 g | body weights [1, 7]: 2661 g | body weights [1, 8]: 2514 g | body weights [1, 9]: 2667 g | body weights [1, 10]: 2515 g | body weights [1, 11]: 2656 g | body weights [1, 12]: 2545 g | body weights [1, 13]: 2670 g | body weights [1, 14]: 2544 g | body weights [1, 15]: 2679 g | body weights [1, 16]: 2613 g | body weights [1, 17]: 2629 g | body weights [1, 18]: 2642 g | body weights [1, 19]: 2769 g | body weights [1, 20]: 2660 g | ALT ([2]; 2 weeks): 67 IU/L | AST ([2]; 2 weeks): 72 IU/L | Albumin ([2]; 2 weeks): 3.6 | Bilirubin ([2]; 2 weeks): 0.46 mg/dL | ALT ([2]; 4 weeks): 58 IU/L | AST ([2]; 4 weeks): 88 IU/L | Albumin ([2]; 4 weeks): 3.5 | Bilirubin ([2]; 4 weeks): 0.23 mg/dL | ALT ([2]; 6 weeks): 102 IU/L | AST ([2]; 6 weeks): 97 IU/L | Albumin ([2]; 6 weeks): 3.1 | Bilirubin ([2]; 6 weeks): 0.22 mg/dL | percent inhibition of Factor 11 activity, relative to PBS control [3, 4]: 6% | percent inhibition of Factor 11 activity, relative to PBS control ([3]; day 8, escalating dose regimen): 8% | percent inhibition of Factor 11 activity, relative to PBS control [3, 5]: 13% | percent inhibition of Factor 11 activity, relative to PBS control [3, 6]: 4% | percent inhibition of Factor 11 activity, relative to PBS control [3, 7]: 12% | percent inhibition of Factor 11 activity, relative to PBS control [3, 8]: 11% | percent inhibition of Factor 11 activity, relative to PBS control [3, 9]: 20% | percent inhibition of Factor 11 activity, relative to PBS control [3, 10]: 15% | percent inhibition of Factor 11 activity, relative to PBS control [3, 11]: 24% | percent inhibition of Factor 11 activity, relative to PBS control [3, 12]: 17% | percent inhibition of Factor 11 activity, relative to PBS control [3, 13]: 24% | percent inhibition of Factor 11 activity, relative to PBS control [3, 14]: 23% | percent inhibition of Factor 11 activity, relative to PBS control [3, 15]: 30% | percent inhibition of Factor 11 activity, relative to PBS control [3, 16]: 42% | percent inhibition of Factor 11 activity, relative to PBS control [3, 17]: 49% | percent inhibition of Factor 11 activity, relative to PBS control [3, 18]: 55% | percent inhibition of Factor 11 activity, relative to PBS control [3, 19]: 57% | percent inhibition of Factor 11 activity, relative to PBS control [3, 20]: 63% | percent inhibition of Factor 11 activity, relative to PBS control [3, 21]: 64% | percent inhibition of Factor 11 activity, relative to PBS control ([3]; day −5, chronic dose regimen (*)): 1% | percent inhibition of Factor 11 activity, relative to PBS control [3, 22]: 0% | percent inhibition of Factor 11 activity, relative to PBS control ([3]; day −14, chronic dose regimen (*)): 0% | percent inhibition of Factor 11 activity, relative to PBS control [3, 23]: 0%

ISIS 416858: MOE gapmer, nucleobases 1275 to 1318 of SEQ ID NO: 1 (Table 8) (antisense ACGGCATTGGTGCACAGTTT; MOE gapmer, wing and gap sizes not given here)
Organ weights, Kidney [1, 24]: 13 g | Organ weights, Liver [1, 24]: 60 g | Organ weights, Spleen [1, 24]: 12 g | Spleen weight ([1]; cynomolgus monkeys, compared to the PBS control): shows increase in spleen weight | body weights ([1]; day 1, escalating dose regimen): 2912 g | body weights ([1]; day 8, escalating dose regimen): 2740 g | body weights [1, 6]: 2760 g | body weights [1, 8]: 2800 g | body weights [1, 10]: 2763 g | body weights [1, 12]: 2584 g | body weights [1, 14]: 2607 g | body weights [1, 16]: 2646 g | body weights [1, 17]: 2617 g | body weights [1, 18]: 2618 g | body weights [1, 19]: 2865 g | body weights [1, 20]: 2713 g | ALT ([2]; 2 weeks): 190 IU/L | AST ([2]; 2 weeks): 236 IU/L | Albumin ([2]; 2 weeks): 3.4 | Bilirubin ([2]; 2 weeks): 0.57 mg/dL | ALT ([2]; 4 weeks): 57 IU/L | AST ([2]; 4 weeks): 108 IU/L | Albumin ([2]; 4 weeks): 3.5 | Bilirubin ([2]; 4 weeks): 0.24 mg/dL | ALT ([2]; 6 weeks): 216 IU/L | AST ([2]; 6 weeks): 178 IU/L | Albumin ([2]; 6 weeks): 2.8 | Bilirubin ([2]; 6 weeks): 0.16 mg/dL | percent inhibition of Factor 11 activity, relative to PBS control ([3]; day 8, escalating dose regimen): 6% | percent inhibition of Factor 11 activity, relative to PBS control [3, 6]: 16% | percent inhibition of Factor 11 activity, relative to PBS control [3, 8]: 23% | percent inhibition of Factor 11 activity, relative to PBS control [3, 10]: 28% | percent inhibition of Factor 11 activity, relative to PBS control [3, 12]: 35% | percent inhibition of Factor 11 activity, relative to PBS control [3, 14]: 39% | percent inhibition of Factor 11 activity, relative to PBS control [3, 16]: 49% | percent inhibition of Factor 11 activity, relative to PBS control [3, 17]: 60% | percent inhibition of Factor 11 activity, relative to PBS control [3, 18]: 68% | percent inhibition of Factor 11 activity, relative to PBS control [3, 19]: 71% | percent inhibition of Factor 11 activity, relative to PBS control [3, 20]: 73% | percent inhibition of Factor 11 activity, relative to PBS control [3, 21]: 78% | percent inhibition of Factor 11 activity, relative to PBS control [3, 22]: 0% | percent inhibition of Factor 11 activity, relative to PBS control [3, 23]: 0%
